Test results from the OPERA property sets (Mansouri et al. 2018).

Point of comparison: `O=C(OCCCc1cnc[nH]1)c1ccccc1`, logP 2.64. Against it:
- CN(C)c1ccc([N+](=O)[O-])cc1 — lower, 2.27
- FC(F)(F)c1nc2c(Cl)cccc2[nH]1 — higher, 2.93
- CCOP(=S)(OCC)SCSCC — higher, 3.56
- CC(O)C(F)(F)F (stereo unspecified) — lower, 0.71
- O=CNc1ccc([N+](=O)[O-])cc1 — lower, 1.43
- CN(C)C(=O)OCc1ccc(Cl)cc1 — higher, 2.93
- Nc1nc(=O)c2ccccc2o1 — lower, 0.27
- O=NN(CC(F)(F)F)CC(F)(F)F — lower, 2.15
- C(#Cc1ccccc1)c1ccccc1 — higher, 4.78
- CCN — lower, -0.13
- O=C(Oc1ccccc1)c1ccccc1 — higher, 3.59
- CBr — lower, 1.19
- CC1(C)S[C@@H]2[C@H](NC(=O)C(C(=O)O)c3ccccc3)C(=O)N2[C@H]1C(=O)O (stereo partly specified) — lower, 1.13
- O=C(Oc1ccccc1)n1c(=O)[nH]cc(F)c1=O — lower, 1.73
- O=[N+]([O-])c1ncn(CC(F)CO)n1 (stereo unspecified) — lower, -0.8
- N#Cc1ccc[nH]1 — lower, 1.13
- COC1C(O)C(C)OC(OC2CCC3(C)C(CCC4C3CCC3(C)C(C5=CC(=O)OC5)CCC43O)C2)C1O (stereo unspecified) — lower, 2.1
- CC(C(=O)O)c1ccc(-c2ccccc2)c(F)c1 (stereo unspecified) — higher, 4.16
- NNC(=O)c1ccnc(Cl)c1 — lower, 0.11
- CCCN(CCC)N=O — lower, 1.36
- c1ccc2c(c1)CCCN2 — lower, 2.29
- CNC(=O)Oc1ccccc1Cl — lower, 1.64
- C=CC(=O)OC — lower, 0.8
- COc1ccccc1NCCO — lower, 1.5
- CCOC(=O)NC — lower, 0.34
- O=C(O)C1c2ccccc2Oc2ccccc21 — lower, 2.23
- CCc1ccccc1N — lower, 1.74
- CON(C)C(=O)Nc1ccc(Cl)c(Cl)c1 — higher, 3.2
- O=NN1CCCC(O)C1 (stereo unspecified) — lower, -0.47
- Oc1cccc(F)c1 — lower, 1.93
- CCCCC#N — lower, 1.12
- c1ccc(-n2cnnn2)cc1 — lower, 1.09
- Nc1cc(N=O)ccc1O — lower, 0.03
- CCOP(=S)(OCC)SCSP(=S)(OCC)OCC — higher, 5.07
- CCOc1c(OC)cc(CCN)cc1OC — lower, 1.11
- CC(C)(O)C(Cl)(Cl)Cl — lower, 2.03
- O=C1OC(c2ccccc2)c2ccccc21 (stereo unspecified) — the same, 2.64
- Cc1cccc(Nc2ccccc2C(=O)O)c1C — higher, 5.12
- OCCN1CCN(CCC=C2c3ccccc3Sc3ccc(Cl)cc32)CC1 — higher, 4.18
- COc1c(C)cccc1C — higher, 3.02
- O=NN(CCCl)C(=O)NC1CCC(C(=O)O)CC1 (stereo unspecified) — lower, 1.68
- COc1ccc(C=C(C(C)=O)C(C)=O)c(OC)c1 — lower, 1.88
- CCNc1nc(Cl)nc(N(CC)CC)n1 — higher, 3.34
- CN(C)P(=O)(N(C)C)N(C)C — lower, 0.28
- CCCC[n+]1ccccc1.[Br-] — lower, -2.69
- NNc1ccccc1 — lower, 1.25
- CC(Oc1ccccc1)C(=O)N[C@@H]1C(=O)N2[C@@H]1SC(C)(C)[C@@H]2C(=O)O (stereo partly specified) — lower, 2.2
- CCNC(=O)c1cccnc1 — lower, 0.31
- COC(=O)c1cccc(C(=O)O)c1 — lower, 1.83
- CC(C)Oc1cccc(COC(=O)N(C)C)c1 — higher, 3.03
- COc1ccc(C=O)cc1C — lower, 2.23
- Nc1ccc(S(=O)(=O)Nc2nccs2)cc1 — lower, 0.05
- COc1ccccc1NCC(C)=O — lower, 1.49
- CCOC(=O)CNC(=O)C=[N+]=[N-] — lower, -0.08
- CCS(=O)(=O)CC — lower, -0.59
- OC1CCCCC1 — lower, 1.23
- Cn1c(=O)cnc2ccccc21 — lower, 0.79
- CCCCOC(N)=O — lower, 0.85
- COP(=O)(OC)C(O)C(Cl)(Cl)Cl (stereo unspecified) — lower, 0.51
- Nc1ccc(CCO)cc1 — lower, 0.1
- ClCC#CCCl — lower, 2.01
- CN(C)C(N(C)C)=S(I)c1ccccc1I (stereo unspecified) — lower, 0.3
- O=[N+]([O-])c1cccs1 — lower, 1.55
- NS(=O)(=O)c1ccc(C(=O)c2ccncc2)cc1 — lower, 0.56
- CCC(=O)OC1(C(=O)CCl)C(C)CC2C3CCC4=CC(=O)C=CC4(C)C3(F)C(=O)CC21C (stereo unspecified) — higher, 3.46
- CC(=O)Nc1ccc(C=O)cc1 — lower, 1.25
- OC(c1ccccc1)c1ccccn1 (stereo unspecified) — lower, 1.52
- CNC(=O)Oc1cccc(OC(C)C)c1 — lower, 1.96
- COc1cccc(C)c1 — within 0.2 log units, 2.66
- CCN(CC)c1nc(Cl)nc(NC(C)C)n1 — higher, 3.94
- CCCCCNC(=O)c1ccc(S(N)(=O)=O)cc1 — lower, 1.51
- FC(F)(F)c1ccccc1 — higher, 3.01
- O=C1CC(Sc2ccccc2)N1 (stereo unspecified) — lower, 1.58
- C=CCN(C(C)=O)C(C)C — lower, 1.14
- CCN(N=O)C(=O)Nc1ccccc1 — lower, 2.25
- Nc1cc(C(F)(F)F)cc(C(F)(F)F)c1 — higher, 3.57
- CC(=O)C=Cc1ccccc1 — lower, 2.07
- COc1cccc(C(=O)O)c1O — lower, 1.94
- CCCCN — lower, 0.97
- CCOC(=O)c1ccc(N=NN(C)CCO)cc1 — within 0.2 log units, 2.66
- COc1noc2c1CNCC2 — lower, -0.04
- NC1=C(Cl)C(=O)c2ccccc2C1=O — lower, 2.12
- c1ccc2occc2c1 — within 0.2 log units, 2.67
- Oc1ccc(Cl)c(Cl)c1 — higher, 3.33
- CCCC1(CC)C(=O)NC(=O)NC1=O — lower, 0.66
- O=C(O)CSCc1ccccc1 — lower, 2.1
- O=c1ccoc2cc(O)ccc12 — lower, 1.44
- COC(=O)C(Cc1ccc(O)cc1)NC(C)=O (stereo unspecified) — lower, 0.33
- O=[N+]([O-])c1cccc(Cl)c1Cl — higher, 3.05
- O=C(O)COc1ccc(Cl)cc1 — lower, 2.25
- O=C(O)Cc1ccccc1Nc1cc(Cl)ccc1Cl — higher, 4.94
- CCN(CC)CCNC(=O)c1cc(C#N)c(N)cc1OC — lower, 1.94
- Cc1ccccc1C(=O)Nc1cccc(OC(C)C)c1 — higher, 3.66
- O=C(Nc1ccccc1)NS(=O)(=O)c1ccc(Cl)cc1 — higher, 3.61
- CN(C)c1cccc2ccccc12 — higher, 3.46
- C=CCC1(CC(=C)Br)C(=O)NC(=O)NC1=O — lower, 1.37
- Oc1cc(Cl)cc(Cl)c1Cl — higher, 3.84
- Clc1cc2ccccc2cc1Cl — higher, 4.42
- Nc1ccc(C(=O)Oc2ccccc2Br)c(O)c1 — higher, 3.74
- C[N+](C)(C)c1ccccc1.[I-] — lower, -2.74
- O=C(OCCOCCO)c1ccccc1 — lower, 1.16
- Nc1ccc(C2CCCCC2)cc1 — higher, 3.65
- BrC=CBr — lower, 1.76
- O=C(O)c1cc2ccccc2o1 — lower, 2.41
- COc1cc(S(C)=O)ccc1-c1nc2nccnc2[nH]1 (stereo unspecified) — lower, 0.66
- CCc1cccc(C)c1N(C(=O)CCl)C(C)COC (stereo unspecified) — higher, 3.13
- CCCCNC(=O)NS(=O)(=O)c1ccc(Cl)cc1 — within 0.2 log units, 2.81
- CCCCOc1ccc(C(N)=O)cc1 — within 0.2 log units, 2.48
- O=CN1CCCC1 — lower, -0.32
- CCc1cc(OC)c(CC(C)N)cc1OC (stereo unspecified) — within 0.2 log units, 2.81
- CCN(CCO)c1ccccc1 — lower, 2.1
- CNC(=O)c1cccnc1 — lower, 0
- CNC(=O)CSP(=S)(OC)OC — lower, 0.78
- CC1COC(=O)O1 (stereo unspecified) — lower, -0.41
- CCOc1cccc(C(=O)NP(=O)(N2CC2)N2CC2)c1 — lower, 1.24
- CCOP(=O)(OCC)Oc1cc(C)nc(C(C)C)n1 — lower, 2.07
- CSc1ccc(SC)nn1 — lower, 1.85
- Cc1ccc2cccnc2c1 — within 0.2 log units, 2.47
- Nc1ccc2ccccc2c1S(=O)(=O)O — lower, -1.16
- CCC(C)NP(=O)(OC)Oc1cc(Cl)c(Cl)cc1Cl (stereo unspecified) — higher, 3.99
- CCCNc1ccccc1 — within 0.2 log units, 2.45
- Oc1ccccc1-c1ccccc1 — higher, 3.09
- CCOC(=O)C(=Cc1ccc(Br)cc1)C(=O)OCC — higher, 4.02
- O=C1NC(=O)[C@@]2(CCOc3ccc(F)cc32)N1 — lower, 0.78
- CCCCOc1cccc(O)c1 — higher, 3.03
